# Measurements as given in patent US20220202859A1, “CANCER TREATMENT USING CD38 INHIBITOR AND/OR LENALIDOMIDE AND T-CELLS EXPRESSING A CHIMERIC ANTIGEN RECEPTOR” (CRISPR THERAPEUTICS AG, priority 2020, published 2022).
# Key:
# NK cells [1] = experiment: NK cell-mediated CAR T cell lysis after daratumumab pre-treatment of NK cells (DAPI cell-kill assay); assay type: cell-based, human
# Experimental: To determine if daratumumab blunts NK-cell mediated CAR T cell lysis, anti-BCMA CAR T cells were co-cultured with purified NK cells that were pre-treated for 60 hours with either daratumumab or isotype control mAb at concentrations of 0.01, 0.1, or 1 μg/mL (FIG. 13A). At the end of the 60 hour pre-treatment period, 50,000 efluor-labelled anti-BCMA CAR T cells were added to the plate containing 150,000 NK cells and Dara/isotype control, and incubated for an additional 24 hours. At the end of the 24-hour co-culture period, anti-BCMA CAR T cell lysis was measured in a cell-kill assay with DAPI.
# Specifically, the anti-BCMA CAR T cells were labeled with 5 μM efluor670 (Cat #65-0840-90; ThermoFisher Scientific), washed and incubated in co-cultures with the NK cells at a 3:1 (NK:T) ratio. The co-culture was incubated 24 hr. After incubation, wells were washed and media was replaced with 150 μL of 1× FACS buffer containing a 1:500 dilution of 5 mg/mL DAPI (Molecular Probes) and 12.5 μL of CountBright beads (C36950; ThermoFisher Scientific).
# To determine if 10 μg/mL daratumumab blunts NK-cell mediated CAR T cell lysis, anti-BCMA CAR T cells deficient in B2M were co-cultured with purified NK cells that were pre-treated for 60 hours with either daratumumab or isotype control mAb at concentrations of 0.1, 1 or 10 μg/mL. Briefly, NK cells were plated at 50,000 or 150,000 cells per well and treated with daratumumab or the isotype control at concentrations of 0, 0.1, 1 and 10 μg/mL. After 60 hours of treatment of NK cells with daratumumab, the anti-BCMA CAR T cells were labeled with 5 μM efluor670 (Cat #65-0840-90; ThermoFisher Scientific), washed and seeded at 50,000 cells per well in co-cultures with the daratumumab-treated NK cells to make 1:1 or 3:1 (NK:T) ratio. The co-culture was incubated for further 24 hr. […] The cells were analyzed for cell viability by flow cytometry (i.e., viable cells being negative for DAPI staining) Pre-treatment with daratumumab protected anti-BCMA CAR T cell from NK induced cell lysis in a dose-dependent manner (FIGS. 14B-14C). […]
# anti-BCMA CAR T cells [2] = experiment: High daratumumab concentrations in NK/CAR T co-culture: CAR T cell numbers; assay type: cell-based, human; conditions: up to 300 μg/mL; 72 hours
# Experimental: (§1) Daratumumab is prescribed in the clinic at a dose of 16 mg/kg (225 μg/mL equivalent). To determine the effect of daratumumab at high concentrations on NK and CAR T cells, anti-BCMA CAR T cells deficient in B2M were co-cultured with purified NK cells that were pre-treated for 60 hours with either human IgGl^-k or daratumumab, each at concentrations of 0.01, 0.1, 1, 10, 100 or 300 μg/mL using methods as described in the previous examples. Flow cytometry was used to assess NK and CAR T cells numbers 72 hours after co-culturing with pre-treated NK cells using methods as described in the previous examples.
# [3] = human, in vivo; cited from earlier work
# NK cells [4] = experiment: High daratumumab concentrations in NK/CAR T co-culture: NK cell numbers; assay type: cell-based, human; conditions: 72 hours
# Experimental: as §1
# MM.1S tumors = experiment: Daratumumab plus anti-BCMA CAR-T cells in subcutaneous MM.1S xenograft model; assay type: in vivo, NOG mice; conditions: high dose 2.4×10^6 CAR+ T cells iv day 0; daratumumab 15 mg/kg IP twice weekly
# Experimental: The effect of combining daratumumab with anti-BCMA CAR-T cell treatment was tested in a subcutaneous MM.1S xenograft model in immunocompromised NOG mice (NOD.Cg-Prkdc^scidIl2rg^tm1Sug/JicTac). In brief, 5 to 8-week old female NOG mice were individually housed in ventilated microisolator cages and maintained under pathogen-free conditions. The animals each received a subcutaneous inoculation in the right flank of 5×10^6 MM.1S cells in 50% Matrigel. When the mean tumor volume reached 150 mm^3 (approximately 125 to 175 mm^3), the mice were randomized into groups with 5 mice per group. Tested groups included an untreated arm, daratumumab only treatment, anti-BCMA CAR-T cell only treatment (low dose or high dose), and anti-BCMA CAR-T cell (low dose or high dose) in combination with daratumumab. Anti-BCMA CAR-T cells were dosed by intravenous injection of 0.8×10^6 (low dose) or 2.4×10^6 (high dose) CAR^+ T cells at day 0. Daratumumab was dosed IP at 15 mg/kg, twice weekly, starting 2 days prior to anti-BCMA CAR-T cell dosing.
# Tumor volume and body weights were measured twice weekly and individual mice were euthanized when their tumor volume reached ≥2000 mm^3.
# T cells = experiment: Daratumumab in PBMC culture: T cell frequency and numbers; assay type: cell-based, human; conditions: 0.01, 0.1 or 1 μg/mL, 96 hours
# Experimental: (§2) Based on the expression levels of CD38 on NK and T cells, the effect of an anti-CD38 antibody, daratumumab (TAB-236, Creative Biolabs), on such cells was assessed. PBMCs from a healthy donor were cultured for 96 hours in media containing 0.01, 0.1, or 1 μg/mL of daratumumab. The effect of 10% complement on the cell cultures was also tested. Untreated cells and cells treated with 0.01, 0.1 or 1 μg/mL isotype control mAb (human IgG1k) (cat #403501, BioLegend) were used as controls. After 96 hours of culture, NK and T cell frequency and numbers were measured.
# NK cells [5] = experiment: Daratumumab in PBMC culture: NK cell frequency and numbers; assay type: cell-based, human
# Experimental: as §2, with “PBMCs from a healthy donor were cultured for 96 hours in media containing 0.01, 0.1, or 1 μg/mL of daratumumab.” left out
# multiple myeloma = conditions: third-line or fourth-line therapy; approximate; cited from earlier work
# anti-BCMA CAR T cells [6] = experiment: Daratumumab on anti-BCMA CAR T cell numbers, frequency and activation; assay type: cell-based, human
# Experimental: To assess whether daratumumab treatment affects CAR T cells with a disrupted β2M gene, anti-BCMA CAR T cells generated in Example 1 were treated with daratumumab with or without 10% complement. After a 72 hour culture period, anti-BCMA CAR T cell numbers and frequency were measured in a flow cytometry assay as described in Example 3 (FIGS. 12A-12B).
# To determine if higher concentrations of daratumumab (10 μg/mL) activates CAR T cells and causes subsequent proliferation or activation-induced cell death, anti-BCMA CAR T cells deficient in B2M were cultured with daratumumab at concentrations of 0.1, 1 or 10 μg/mL for 24 hours. Untreated cells or anti-BCMA CAR T cells deficient in B2M treated with IgG1k isotype control mAb were used as controls.
substance,measurement,setting,value
daratumumab: fully human IgGκ monoclonal antibody that targets CD38,protective effect against anti-BCMA CAR T cell lysis,"NK cells [1]; 1:1 NK:T ratio, 0.1 μg/mL, 60 hours pre-treatment",91%
same,protection from NK cell lysis,"NK cells [1]; 3:1 NK:CAR T ratio, 1 μg/mL, 60 hours pre-treatment",85%
same,anti-BCMA CAR T cell lysis by pre-treated NK cells,"NK cells [1]; NK cells pre-treated 60 hours at 0.01, 0.1 or 1 μg/mL, 3:1 NK:T, 24 hr co-culture",reduced anti-BCMA CAR T cell lysis in a dose-dependent manner
same,BCMA CAR T cell numbers,anti-BCMA CAR T cells [2],unaffected by the high daratumumab concentrations
same,hepatitis B reactivation,[3],1%
same,herpes zoster reactivation,[3],2%
same,decrease in NK cells,NK cells [4]; 1 μg/mL,29%
same,further decrease in NK cells,NK cells [4]; 300 μg/mL,38%
same,mean tumor volume at day 26,MM.1S tumors,1475 mm^3
same,T cell numbers or frequency,T cells,did not affect T cell numbers or frequency
same,reduction of NK cell numbers,"NK cells [5]; 1 μg/mL, 96 hours",approximately 75%
same,NK cell frequency and numbers,"NK cells [5]; 0.01, 0.1 or 1 μg/mL, 96 hours",dose-dependent decrease of NK cell frequency and numbers
same,reduction of NK cell numbers,"NK cells [5]; PBMCs from a different donor, 72 hours",~57%
same,complement dependence of NK cell reduction,NK cells [5]; addition of 10% complement,not complement dependent
same,historical ORR,multiple myeloma,~30%
same,activation of CAR T cells,anti-BCMA CAR T cells [6],did not induce activation of CAR T cells
same,B2M deficient CAR T cell numbers,"anti-BCMA CAR T cells [6]; 10 μg/mL, 24 hours",did not significantly reduce B2M deficient CAR T cells numbers
same,anti-BCMA CAR T cell numbers or frequency,"anti-BCMA CAR T cells [6]; 72 hour culture, with or without 10% complement",did not affect anti-BCMA CAR T cells numbers or frequency
